Data on 55 compounds can be found in ChEMBL document CHEMBL1201862, “PubChem BioAssay data set” (2004).

Among the test systems are Hs-578T; BT-549; SNB-78; KM-20L2; DLD-1; DMS-273; HOP-18; XF498.
Common to all, as to test: DTP human tumour cell line panel, 48 h

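All cell lines were grown in 96-well plates and treated with compound for 48 hours. Here, GI50 denotes the concentration required for 50% inhibition of growth.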 Activity calls are given as the source filed them. No stated cut-off is given here; in the data, active = GI50 up to about 1.1 µM and inactive = higher.

On to `CC(C)CC1c2[nH]c3ccccc3c2C[C@H]2C(=O)NC(CCC(=O)OC(C)(C)C)C(=O)N12` (stereo not given in full), for which the figures for the GI50 with Hs-578T and in the test on BT-549 were 15.1 µM (inactive) and 33.5 µM (inactive), respectively.

On to `Clc1ccc(-c2cn3c(nc4ccccc43)c(-c3ccccc3)n2)cc1`, for which the values for the GI50 in the test with Hs-578T and in the test on BT-549 were 12.3 µM (inactive) and 19.5 µM (inactive), respectively.

With `CCN(CC)CCN1c2ccccc2Sc2ccc3ccccc3c21`, the GI50 in the test with Hs-578T was 13.5 µM (inactive); in the test with BT-549 it was 14.9 µM (inactive).

As to `O=C(NCCCCCCCN1CCCCCCC1)C(C1CCCCC1)C1CCCCC1`, the figures for the GI50 in the test with Hs-578T and in the test with BT-549 were 21.7 µM (inactive) and 14.3 µM (inactive), respectively.

For `COC(=O)c1cc(O)nc(O)n1`, the GI50 in the test with BT-549 was > 100 µM (inactive).

Regarding `CC(C)(C)C1=CC(=C(c2ccc(-c3c4nc(c(-c5ccc(C(=C6C=C(C(C)(C)C)C(=O)C(C(C)(C)C)=C6)c6cc(C(C)(C)C)c(O)c(C(C)(C)C)c6)cc5)c5ccc([nH]5)c(-c5ccc(C(=C6C=C(C(C)(C)C)C(=O)C(C(C)(C)C)=C6)c6cc(C(C)(C)C)c(O)c(C(C)(C)C)c6)cc5)c5nc(c(-c6ccc(C(=C7C=C(C(C)(C)C)C(=O)C(C(C)(C)C)=C7)c7cc(C(C)(C)C)c(O)c(C(C)(C)C)c7)cc6)c6ccc3[nH]6)C=C5)C=C4)cc2)c2cc(C(C)(C)C)c(O)c(C(C)(C)C)c2)C=C(C(C)(C)C)C1=O`, the GI50 with Hs-578T and in the test with BT-549 was > 100 µM (inactive) each time.

For the compound `COc1cccc2c1OC(c1ccc(C#N)cc1)C([N+](=O)[O-])=C2` (stereo not given), the GI50 is 1.78 µM (inactive) with Hs-578T and 1.49 µM (inactive) in the test with BT-549.

For the compound `COC1(OC)C=CC2C1C1C=CC2C1(OC)OC` (stereo not given), the GI50 in the test on Hs-578T is > 100 µM (inactive).

With `O=C(CNc1c(Cl)cccc1Cl)NC1C=Cc2ccc(S(=O)(=O)Nc3c(Cl)cccc3Cl)cc2C1=O` (stereo not given), the GI50 in the test on Hs-578T is 6.71 µM (inactive); with BT-549, 60.7 µM (inactive).

`CN(C)CCOC1(Cc2ccc(Cl)cc2Cl)CCC(C(C)(C)C)CC1` (stereo not given): the GI50 with Hs-578T was 1.97 µM (inactive); in the test with BT-549, 1.63 µM (inactive).

As for `COc1cc(/C=C/c2cc(/C=C/c3ccc(O)c(OC)c3)oc(=O)c2)ccc1O`, the GI50 with Hs-578T was 4.54 µM (inactive); with BT-549, 3.23 µM (inactive).

Regarding `C[C@@H]1C(=O)O[C@H]1[C@H](O)CO`, in the test on BT-549, the GI50 is > 100 µM (inactive).

For the compound `Nc1ccc(Oc2ccc(C34CC5CC(C3)CC(c3ccc(Oc6ccc(N)cc6)cc3)(C5)C4)cc2)cc1`, the results for the GI50 in the test on Hs-578T and in the test with BT-549 were 20.2 µM (inactive) and 8.69 µM (inactive), respectively.

With `O=C1C[C@H](CCC(=O)OCc2ccccc2)NC(=O)C[C@H](CCC(=O)OCc2ccccc2)NC(=O)C[C@H](CCC(=O)OCc2ccccc2)N1`, the GI50 was 5.24 µM (inactive) in the test with Hs-578T and 24.3 µM (inactive) in the test on BT-549.

Regarding `NC(=O)NNCc1c(-c2ccccc2)no[n+]1[O-]`, the GI50 in the test on Hs-578T and with BT-549 was > 100 µM (inactive) each time.

With `CC(C)C(NCc1c2ccccc2[n+]([O-])c2ccccc12)C(=O)O` (stereo not given), the GI50 was 68.2 µM (inactive) with SNB-78; 43.8 µM (inactive) with KM-20L2; 36.4 µM (inactive) in the test with DLD-1; 38.9 µM (inactive) in the test on DMS-273; 14.5 µM (inactive) in the test on HOP-18.

Consider `Clc1sc(Cl)c2c1[C@H](Br)C[C@@H]2Cl`, for which the GI50 was 22.8 µM (inactive) in the test on Hs-578T and 18.2 µM (inactive) in the test on BT-549.

Consider `O=C(O)CC12CC3CC(CC(O)(C3)C1)C2`, for which the GI50 was 27.5 µM (inactive) with Hs-578T and > 100 µM (inactive) in the test on BT-549.

With `CC1(C)CNC(=O)C2(CCCO2)CNC(C)(C)CNC(=O)C2(CCCO2)CN1` (stereo not given), the GI50 in the test on Hs-578T and in the test with BT-549 was > 10 µM (inactive) in each case.

As to `CC(=O)OCc1cn(S(=O)(=O)c2ccc(C)cc2)cn1`, the GI50 in the test on Hs-578T was 36.5 µM (inactive); in the test with BT-549, > 100 µM (inactive).

Turning to `CN/N=C(/CC(=O)c1sc(NNC(C)=O)nc1C)C(=O)Nc1ccc(OC)cc1OC`, the GI50 in the test with SNB-78, in the test with KM-20L2, in the test on DLD-1, in the test with XF498 and in the test on DMS-273 was > 100 µM (inactive) throughout.

`CCOC(CI)O[C@@H]1C=C[C@H](OC(C)=O)C1` (stereo not given in full): in the test on BT-549, the GI50 was > 100 µM (inactive).

On to `CN(C)CCNc1ncnc2[nH]c(-c3ccc4ccccc4c3)nc12`, for which the GI50 in the test on Hs-578T and in the test on BT-549 was > 100 µM (inactive) throughout.

For `CCOC(=O)NC(Nc1ccc(F)c(F)c1)(C(=O)OCC)C(F)(F)F` (stereo not given), the GI50 in the test on Hs-578T was > 25.9 µM (inactive); in the test with BT-549, > 100 µM (inactive).

With `O=C1C(=Cc2ccccc2O)N=C(c2ccccc2)N1n1c(-c2ccccc2)nc2ccccc2c1=O`, the GI50 is 35.6 µM (inactive) in the test with Hs-578T and 28.8 µM (inactive) with BT-549.

With `O=C(O)CCC1C(=O)C2CCN1CC2` (stereo not given), the GI50 with Hs-578T was > 100 µM (inactive).

As to `C[C@H]1/C(=C/C(=O)OCCN(C)C)CC[C@H]2[C@H]1C(=O)C[C@H]1C(C)(C)[C@@H](O)CC[C@]21C`, the GI50 with Hs-578T and in the test on BT-549 was > 100 µM (inactive) each time.

In the case of `O=C(O)/C(=C/C=C/c1ccccc1)c1csc(-c2nc(/C(=C\C=C\c3ccccc3)C(=O)O)cs2)n1`, the GI50 in the test on SNB-78 is 27.2 µM (inactive); with KM-20L2, 35.8 µM (inactive); in the test with DLD-1 it was 12.6 µM (inactive).

`C=CCNC1=C2C[C@@H](C)C[C@@H](OC)[C@H](OC(=O)CCN)[C@H](C)/C=C(\C)[C@@H](OC(N)=O)[C@H](OC)/C=C\C=C(/C)C(=O)NC(=CC1=O)C2=O`: the GI50 with Hs-578T is 14.5 µM (inactive); in the test with BT-549, 7.45 µM (inactive).

For `CCOC(=O)C1OC(=O)CC1C1(C(=O)OCC)C=CC(=O)O1` (stereo not given), in the test on BT-549, the GI50 was > 100 µM (inactive).

Take `COC(=O)/C=C(/C=C1/C(C#N)=C(N)N(c2ccc(Cl)cc2)C1(C)/C(=C\C(=O)OC)C(=O)OC)C(=O)OC` (stereo not given): the GI50 in the test with Hs-578T is 42.8 µM (inactive); with BT-549, 15.7 µM (inactive).

On to `CC1=C(C)C(=O)C2=C(OCCO2)C1=O`, for which the GI50 with BT-549 is 22.8 µM (inactive).

`Cc1ccc(C(O)/C(=N/N)c2nc3ccc([N+](=O)[O-])cc3nc2O)cc1` (stereo not given): the GI50 was > 100 µM (inactive) with SNB-78; 57.5 µM (inactive) in the test on KM-20L2; > 100 µM (inactive) with DLD-1; 95.5 µM (inactive) in the test with XF498; 83.4 µM (inactive) in the test on DMS-273.

For the compound `CC(=O)OCC1OC(c2nnc(C)o2)=CC(OC(C)=O)C1OC(C)=O` (stereo not given), the GI50 with Hs-578T and in the test on BT-549 was > 100 µM (inactive) throughout.

As for `CCOC(=O)Cn1c(C)nc2nn(Cc3ccccc3)cc2c1=O`, the GI50 in the test with Hs-578T and in the test with BT-549 was > 100 µM (inactive) in each case.

For `O=C1CC2c3ccccc3CCC2c2ccccc21` (stereo not given), the GI50 with Hs-578T is 12.4 µM (inactive).

In the case of `COc1cccc(C2=NC(C(C)C)CO2)c1OC` (stereo not given), the GI50 in the test with SNB-78, in the test with KM-20L2, in the test with DLD-1, in the test on XF498 and with DMS-273 was > 100 µM (inactive) throughout.

As for `CC1N=C(c2ccccc2)OC1=O` (stereo not given), the GI50 with Hs-578T and in the test with BT-549 was > 100 µM (inactive) each time.

As to `CC1=NC(=Cc2ccc(Cl)cc2)C(=O)N1n1c(-c2ccccc2)nc2ccccc2c1=O`, the GI50 was 18.1 µM (inactive) with Hs-578T and 40.6 µM (inactive) in the test with BT-549.

With `CCCC(=O)Nc1cc(/C=C/C(=O)N2C[C@H]3C[C@@]34C2=CC(=O)c2[nH]cc(C)c24)n(C)c1`, the GI50 is 0.00273 µM (active) in the test on Hs-578T and < 0.0025 µM (active) in the test with BT-549.

Take `CC(C)(C)N/C(N)=N/C#N`: the GI50 in the test on Hs-578T and in the test with BT-549 was > 100 µM (inactive) throughout.

Regarding `CC(C)(C)OC(=O)n1c2ccccc2c2c(=O)nc(N3CCCCC3)sc21`, the GI50 with Hs-578T and in the test on BT-549 was > 100 µM (inactive) each time.

Consider `COc1ccc(C(=O)c2sc(N(C)C)nc2-c2ccccc2)cc1`, for which the GI50 in the test with Hs-578T was 38.7 µM (inactive); in the test on BT-549, 26.1 µM (inactive).

With `COc1ccc2c(c1)c1c(n2CCN2CCOCC2)-c2cccc(OC)c2CC1`, the GI50 in the test with Hs-578T is 35 µM (inactive); in the test with BT-549, 37.2 µM (inactive).

For `CSc1ncc2c(C#N)c3sc4ccccc4n3c(=O)c2n1`, the GI50 with Hs-578T was 24.6 µM (inactive); in the test with BT-549 it was > 100 µM (inactive).

On to `COc1ccc(/C=C2\S/C(=N/Nc3nc(-c4ccccc4)cs3)NC2=O)cc1OC`, for which the GI50 is 24.6 µM (inactive) in the test with Hs-578T and 24.5 µM (inactive) in the test on BT-549.

Take `O=C(N/N=C(/CCN1CCCC1)CC(c1ccccc1)c1c(O)c2ccccc2oc1=O)c1ccncc1` (stereo not given): the GI50 in the test with SNB-78, in the test on KM-20L2, with DLD-1 and in the test with HOP-18 was > 100 µM (inactive) each time.

As to `COC(=O)C(Cc1ccccc1)NC(=O)CCCNC(=O)OCc1ccccc1` (stereo not given), the GI50 in the test on Hs-578T and with BT-549 was > 100 µM (inactive) throughout.

`O=C(Nc1ccccc1Cl)c1cc(S(=O)(=O)Nc2n[nH]c(=O)n2-c2ccccc2)c(S)cc1Cl`: the GI50 in the test with Hs-578T and in the test on BT-549 was > 100 µM (inactive) throughout.

`CCCCOC(=O)Nc1ccc(S(=O)(=O)Nc2c(Cl)cccc2Cl)cc1`: the GI50 in the test on Hs-578T is 43 µM (inactive); with BT-549 it was 17.7 µM (inactive).

In the case of `O=C(Cn1c(C(=O)/C=C/c2ccc(Cl)c(Cl)c2)nc2ccccc21)c1ccccc1`, the GI50 is 27.3 µM (inactive) with Hs-578T and 32.1 µM (inactive) in the test on BT-549.

On to `C/C(COc1ccccc1)=N\NC(N)=S`, for which the GI50 in the test on SNB-78 was > 100 µM (inactive); in the test with KM-20L2, > 100 µM (inactive); in the test with DLD-1, > 100 µM (inactive); with XF498, 53.5 µM (inactive); in the test on DMS-273, > 100 µM (inactive).

In the case of `C=CCCCCCCCC(O)C1C[C@H](O)C(CCCCC)O1` (stereo not given in full), the GI50 in the test on SNB-78 is 20 µM (inactive); in the test on DLD-1 it was 17.3 µM (inactive); in the test on DMS-273, 18.1 µM (inactive); in the test with HOP-18, 17.9 µM (inactive).

In the case of `COc1ccc(-c2cc(=O)c3c(OC)c(OC)c(OC)c(OC)c3o2)c(OC)c1`, the GI50 in the test with Hs-578T was 18 µM (inactive); with BT-549, 31 µM (inactive).

Turning to `CN1C(=O)CSC1=S` [3-METHYL-RHODANINE], the GI50 in the test on SNB-78, in the test with KM-20L2, in the test on DLD-1, in the test on DMS-273 and in the test with HOP-18 was > 100 µM (inactive) throughout.

As a reminder, the GI50 is the concentration giving 50% growth inhibition.
